Legend:
[1] = system: tilapia; settings: L-carnitine in basal diet, compared with the blank Control group; cited from earlier work
[2] = system: porkers; test: Effect on the production performance of porkers (breeding test); type: in vivo; settings: 1000 ppm in basal diet, 28 days; for FCR (feed conversion ratio): ADFI/ADG
Source text: 90 head of “duroc×landrace×Large Yorkshire” three-way cross lean-type pigs with similar weights having an average weight of 80 kg were randomly divided into 3 treatment groups, each group having 3 repetitions, and each repetition having 10 pigs, half male and half female. The pigsty and appliances were sterilized before testing. During the test, the piglets were fed in separate pigpens under the same feeding and management condition in the same pigsty. During the test, the test pigs ate and drank freely, and were fed twice a day. Each test group is a control group (Group I) and test groups II to III, respectively. Wherein, the control group was fed with a basal diet only, and the test groups II to III were fed with diets that were supplemented with 1000 ppm of different γ-quaternary ammonium butyrate compounds on the basis of the basal diet, specifically as shown in Table 1.
During the entire feeding process, no additional antioxidant components or growth promoters were added for each test group. The test period is 28 days, with each repetition as a unit, the pigs were weighed on the 28th day of the test after not stopping water but stopping feeding for 12 hours to calculate the average daily feed intake (ADFI, g/d*head), average daily gain (ADG, g/d*head) and feed conversion ratio (FCR) for each test group. The calculation formulas are as follows: Average daily feed intake=(total amount of feeds-remaining amount of feeds)/(test days×number of pigs per repetition); Average daily gain=(average weight at the end of the test-average weight at the beginning of the test)/test days; Feed conversion ratio=average daily feed intake/average daily gain.

[3] = system: broilers; test: Effect on the production performance of broilers (breeding test); type: in vivo, Chinese three-yellow-feather broilers; settings: 600 ppm in basal diet, 20 days; for FCR (feed conversion ratio): ADFI/ADG
Experimental: A single-factor random design was adopted for the test. 360 of one-day-old Chinese three-yellow-feather broilers with similar weights having an average weight of 50 g were randomly divided into 3 treatment groups, each group having 6 repetitions, half male and half female, and each repetition having 20 Chinese three-yellow-feather broilers. The henhouse and appliances were sterilized before testing. During the test, the cage rearing was carried out in the same henhouse under the same feeding and management condition. The basal diet is mainly a corn-soybean meal, and no additional antioxidant components or growth promoters were added during the entire feeding process. Each test group is a control group (Group I) and test groups II to III, respectively. Wherein, the control group was fed with the basal diet only, and the test groups II to III were fed with basal diets that were added with 600 ppm of different γ-quaternary ammonium butyrate compounds.
The test period was 20 days in total. The test broilers were free to drink and eat, and were fed twice a day. With each repetition as a unit, the test broilers were weighed at the age of 21 days (stopping feeding for 12 hours, without stopping water) to count the consumption of the test broilers, calculate the average daily feed intake (ADFI, g/d*number of broilers), average daily gain (ADG, g/d*number of broilers) and feed conversion ratio (FCR) of each group of test broilers. The calculation formulas are as follows: Feed conversion ratio (FCR)=average daily feed intake/average daily gain.

| Structure (SMILES) | weight gain rate reduced [1] | ADFI (average daily feed intake) [2] | ADG (average daily gain) [2] | FCR (feed conversion ratio) [2] | ADFI (average daily feed intake) [3] | ADG (average daily gain) [3] | FCR (feed conversion ratio) [3] |
| --- | --- | --- | --- | --- | --- | --- | --- |
| C[N+](C)(C)C[C@H](O)CC(=O)[O-] [L-carnitine] | 1.2% | – | – | – | – | – | – |
| C[N+](C)(C)C[C@H](O)CC(=O)OCc1ccccc1 [benzyl L-carnitine chloride] | – | 2560 g/d * head | 790 g/d * head | 3.24 | 32.18 g/d * number of broilers | 13.46 g/d * number of broilers | 2.39 |
| CCOC(=O)C[C@@H](O)C[N+](C)(C)C [ethyl L-carnitine bromide, ethyl (R)-3-hydroxy-4-(trimethylammonium) butyrate bromide] | – | 2624 g/d * head | 788 g/d * head | 3.33 | 31.34 g/d * number of broilers | 13.00 g/d * number of broilers | 2.41 |
